Data reported in patent US20170197935A1, “INHIBITORS OF DNA GYRASE FOR THE TREATMENT OF BACTERIAL INFECTIONS” (Vitas Pharma Research Private Limited, priority 2012, published 2017).
≈ marks a conversion by molar mass, not a printed value.

Assays:
[1] = test system: Methicillin resistant Staphylococcus aureus (ATCC 33591); test: MIC by microbroth dilution, MRSA ATCC 33591; format: cell-based; conditions: Formula II compounds, read-out: Minimum Inhibitory Concentration (MIC) MRSA ATCC 33591
Description: (§1) Shown below are the microbiological activities of representative compounds of Formula I of the invention. The compounds were tested by the microbroth dilution method (National committee for Clinical Laboratory Standards, 2011, M07-08) and the Minimum Inhibitory Concentration (MIC) was determined.
(§2) Analysis of microbiological activity of compounds shown below are the microbiological activities of representative compounds of Formula II of the invention. The compounds were tested by the microbroth dilution method as per the reference in Example 1.

E. coli (ATCC 25922) = test: MIC by microbroth dilution, E. coli ATCC 25922; format: cell-based; conditions: Escherichia coli, ATCC25922, Formula II compounds, read-out: Minimum Inhibitory Concentration (MIC) E. coli ATCC 25922
Description: as §1, §2

E. faecalis ATCC 51299 = test: MIC by microbroth dilution, E. faecalis ATCC 51299; format: cell-based; conditions: Enterococcus faecalis, ATCC51299, Formula II compounds, read-out: Minimum Inhibitory Concentration (MIC) E. faecalis ATCC 51299
Description: as §1, §2

Acinetobacter BAA747 = test: MIC by microbroth dilution, Acinetobacter BAA747; format: cell-based; conditions: Formula II compounds, read-out: Minimum Inhibitory Concentration (MIC) Acinetobacter BAA747
Description: as §1, §2

Pseudomonas ATCC 27853 = test: MIC by microbroth dilution, Pseudomonas ATCC 27853; format: cell-based; conditions: ATCC27853, Formula II compounds, read-out: Minimum Inhibitory Concentration (MIC) Pseudomonas ATCC 27853
Description: as §1, §2

[2] = target: T1, ciprofloxacin resistant recombinant Gyrase protein (with mutation S83L) (Escherichia coli, UniProt P0AES4+P0AES6, S83L); test: Gyrase supercoiling assay with ciprofloxacin resistant Gyrase (S83L); format: biochemical; conditions: read-out: Target specificity: % inhibition of supercoiling activity
T1 construct: purchased Inspiralis
Description: The enzyme is incubated with the substrate (relaxed DNA) in the presence and absence of compounds for 1 hour at 37° C. and the DNA is run on a gel at low voltage for several hours. The amount of supercoiled DNA is quantified using DNA imaging and quantification software (Image Lab). The activity of the enzyme is proportional to the amount of supercoiled form detected.

Row | Compound | MIC [1] | MIC (E. coli (ATCC 25922)) | MIC (E. faecalis ATCC 51299) | MIC (Acinetobacter BAA747) | MIC (Pseudomonas ATCC 27853) | inhibition at 0.1 µM [2] | inhibition at 1 µM [2]
1 | Cc1ccc(CNC2CCN(CCn3c(=O)cnc4ccc(C#N)cc43)CC2)cc1F [VT-03-00103] | 0.03 µg/mL (≈ 0.0715 µM) | 0.5 µg/mL (≈ 1.19 µM) | 0.25 µg/mL (≈ 0.596 µM) | 1 µg/mL (≈ 2.38 µM) | 32 µg/mL (≈ 76.3 µM) | 55.8% | 87.5%
2 | CNC(=O)c1ccc2ncc(=O)n(CCN3CCC(NCc4ccc(C)c([N+](=O)[O-])c4)CC3)c2c1 [VT-03-00108] | 0.25 µg/mL (≈ 0.522 µM) | 8 µg/mL (≈ 16.7 µM) | 2 µg/mL (≈ 4.18 µM) |  |  |  | 
3 | Cc1ccc(CNC2CCN(CCn3c(=O)cnc4ccc(Cl)nc43)CC2)cc1F [VT-03-00111] | 0.125 µg/mL (≈ 0.291 µM) | 1 µg/mL (≈ 2.33 µM) | 0.5 µg/mL (≈ 1.16 µM) |  |  | 90.4% | 87.6%
4 | Cc1ccc(CNC2CCN(CCn3c(=O)cnc4ccc(OC(F)(F)F)cc43)CC2)cc1[N+](=O)[O-] [VT-03-00114] | 0.06 µg/mL (≈ 0.119 µM) | 2 µg/mL (≈ 3.96 µM) | 0.5 µg/mL (≈ 0.989 µM) |  |  |  | 
5 | O=c1cnc2ccc(F)cc2n1CCN1CCC(NCc2ccc(Cl)c([N+](=O)[O-])c2)CC1 [VT-03-00116] | 0.03 µg/mL (≈ 0.0652 µM) | 0.25 µg/mL (≈ 0.544 µM) | 0.25 µg/mL (≈ 0.544 µM) | 0.25 µg/mL (≈ 0.544 µM) | 16 µg/mL (≈ 34.8 µM) | 96.9% | 94.3%
6 | Cc1ccc(CNC2CCN(CCn3c(=O)cnc4ccc(F)cc43)CC2)cc1C#N [VT-03-00117] | 0.125 µg/mL (≈ 0.298 µM) | 0.5 µg/mL (≈ 1.19 µM) | 0.25 µg/mL (≈ 0.596 µM) | 0.25 µg/mL (≈ 0.596 µM) | 16 µg/mL (≈ 38.1 µM) | 88.2% | 97.5%
7 | Cc1ccc(CNC2CCN(CCn3c(=O)cnc4ncc(C#N)cc43)CC2)cc1[N+](=O)[O-] [VT-03-00119] | 4 µg/mL (≈ 8.94 µM) | 8 µg/mL (≈ 17.9 µM) | 16 µg/mL (≈ 35.8 µM) | 8 µg/mL (≈ 17.9 µM) | > 32 µg/mL |  | 
8 | COc1ccc2ncc(=O)n(CCN3CCC(NCc4ccc(Cl)c([N+](=O)[O-])c4)CC3)c2c1 [VT-03-00128] | 0.015 µg/mL (≈ 0.0318 µM) | 0.5 to 1 µg/mL (≈ 1.06 to 2.12 µM) | 0.25 µg/mL (≈ 0.53 µM) | 0.25 µg/mL (≈ 0.53 µM) | 8 µg/mL (≈ 17 µM) | 34% | 51%
9 | Cc1ccc(CNC2CCN(CCn3c(=O)cnc4ccc(Cl)nc43)CC2)cc1C#N [VT-03-00131] | 0.25 µg/mL (≈ 0.572 µM) | 0.25 to 1 µg/mL (≈ 0.572 to 2.29 µM) | 0.25 µg/mL (≈ 0.572 µM) | 0.25 µg/mL (≈ 0.572 µM) | 16 µg/mL (≈ 36.6 µM) |  | 

The next lines start with results.

Row | MIC [1] | MIC (E. coli (ATCC 25922)) | MIC (E. faecalis ATCC 51299) | MIC (Acinetobacter BAA747) | MIC (Pseudomonas ATCC 27853) | Compound | inhibition at 0.1 µM [2] | inhibition at 1 µM [2]
10 | 0.06 µg/mL (≈ 0.139 µM) | 1 µg/mL (≈ 2.32 µM) | 0.5 µg/mL (≈ 1.16 µM) |  |  | Cc1ccc(CNC2CCN(CCN3C(=O)CNc4ccc(Cl)nc43)CC2)cc1F [VT-03-00107] |  | 
11 | 1 µg/mL (≈ 2.21 µM) | 16 µg/mL (≈ 35.4 µM) | 2 µg/mL (≈ 4.43 µM) |  |  | CNC(=O)c1ccc2ncc(=O)n(CCN3CCC(NCc4ccc(C)c(F)c4)CC3)c2c1 [VT-03-00109] |  | 
12 | 0.5 µg/mL (≈ 1.13 µM) | 2 µg/mL (≈ 4.54 µM) |  | 8 µg/mL (≈ 18.2 µM) | > 32 µg/mL | COc1ccc2ncc(=S)n(CCN3CCC(NCc4ccc(C)c(F)c4)CC3)c2c1 [VT-03-00126] |  | 
13 | 1 µg/mL (≈ 2.23 µM) | 2 µg/mL (≈ 4.47 µM) | 1 µg/mL (≈ 2.23 µM) | 2 µg/mL (≈ 4.47 µM) | 32 µg/mL (≈ 71.5 µM) | COc1ccc2ncc(=S)n(CCN3CCC(NCc4ccc(C)c(C#N)c4)CC3)c2c1 [VT-03-00132] |  | 
14 | 0.015 µg/mL (≈ 0.0319 µM) | 2 µg/mL (≈ 4.26 µM) | 0.25 µg/mL (≈ 0.532 µM) | 0.5 µg/mL (≈ 1.06 µM) | 32 µg/mL (≈ 68.2 µM) | COc1ccc2ncc(=O)n(CCN3CC[C@H](NCc4ccc(C)c([N+](=O)[O-])c4)[C@H](F)C3)c2c1 [VT-03-00134] |  | 
